Key:
[1] = system: keratinocytes (HaCat line); test: Keratinocyte proliferation in culture medium deficient in growth factors (Cyquant, Nile red, XTT probes); assay type: cell-based
Experimental: The keratinocytes (HaCat line) are cultured under two conditions: whole defined culture medium (standard condition) and culture medium deficient in growth factors. This deficient medium gives rise to a controlled delay in cell proliferation. Under these conditions, it is then possible to measure the effects of compounds capable of compensating for the deficiency in growth factors of the culture medium and thus of relaunching the cell multiplication and/or of stimulating cell metabolism.
The keratinocyte proliferation is measured by means of three markers on the same cell population: the level of DNA, which is proportional to the number of cells (Cyquant probe), the level of constituent polar lipids of cell membranes (Nile red probe) and the mitochondrial respiration, which reflects the general cell metabolism (XTT probe).

[2] = system: dermal fibroblasts of the reconstructed skin; test: Count of dermal fibroblasts in whole reconstructed skin (propidium iodide staining of frozen sections); assay type: cell-based, human; conditions: 5 mM; within 48 hours of treatment
Excerpt: Rhamnose was studied on a model of whole reconstructed skin in order to measure its anti-aging efficacy on the dermal compartment.
Briefly, the model of reconstructed skin used is that described by Bell et al. (Bell E. et al., The reconstitution of living skin, J. Invest. Dermatol., 1983, July; 81): it includes a dermal equivalent on which is reconstructed a multistratified epidermis; the dermal equivalent is manufactured from acid-soluble collagen, culture medium containing serum and normal adult human fibroblasts. After 5 days of shrinkage, this equivalent is inoculated with keratinocytes and then cultured for 6 days in immersion and for 7 days in emersion in order to obtain a multistratified and differentiated epidermis having a horny layer.
The reconstructed skin is treated with 5 mM rhamnose for 2 days and 5 days in the culture medium; after the treatment, the reconstructed skins are included in Tissue Tek in order to produce frozen sections 7 μm thick with a cryostat. […] Three frozen sections are prepared at random on each reconstructed skin; on each section, two microscopic fields (25× objective lens) are analysed by fluorescence microscopy and photographed. The dermal fibroblasts are thus counted for each reconstructed skin on six images in total representing the six microscopic fields considered. […]

type I procollagen = test: Indirect immunofluorescence detection of type I procollagen in the dermis of reconstructed skin; assay type: cell-based, human
Experimental: Conventional detection via indirect immunofluorescence of type I procollagen in the dermis of the reconstructed skin was also performed on other series of frozen sections (anti-procoll 1 antibody (MAB 1912 Millipore)+FTIC-coupled conjugate (112-095-068 Jackson Immunoresearch)). In order to obtain bearings within the cutaneous architecture during the microscopic examination of the sections, the cell nuclei of the keratinocytes and fibroblasts are localized by staining them with propidium iodide, as described above. Three frozen sections are prepared at random on each reconstructed skin and on each section, and two microscopic fields (25× objective lens) are analysed by fluorescence microscopy and photographed. The levels of fluorescence proportional to the amount of type I procollagen are compared between the control skin and the skin treated with rhamnose.

[3] = 1 mM, HaCat keratinocytes in medium depleted in growth factors, vs untreated control

C[C@H](O)[C@H](O)[C@@H](O)[C@@H](O)C=O [rhamnose, L-rhamnose]
efficacy on keratinocyte proliferation ([1]; 500 μM, medium depleted in growth factors): already show efficacy
level of DNA (Cyquant) [1, 3]: significantly increased
level of polar lipids (Nile red signal) [1, 3]: significantly increased
mitochondrial respiration (XTT signal) [1, 3]: significantly increased
number of cells compared with an untreated control (keratinocyte proliferation) ([1]; keratinocytes cultured in medium depleted in growth factor): higher number of cells
growth of the dermal fibroblasts of the reconstructed skin [2]: stimulation of growth
synthesis of type I procollagen by the fibroblasts (type I procollagen; 1 mM for 120 hours, reconstructed skin): greatly stimulated
green fluorescence (proportional to amount of type I procollagen) compared with control skin (type I procollagen; 1 mM for 120 hours, reconstructed skin section): marked increase
procollagen 1 synthesis (type I procollagen; 1 mM, reconstructed skin): stimulation
procollagen 1 synthesis (type I procollagen; 5 mM, reconstructed skin): stimulation

— patent US20100168055A1, “COMBINATION OF MONOSACCHARIDE WITH C-GLYCOSIDE DERIVATIVE AND USE THEREOF” (L'OREAL, priority 2008, published 2010)
